In US12209102B2, “Heterocyclic compounds and uses thereof” (Kumquat Biosciences Inc., priority 2022, dated 2025):

Key:
K-Ras G12D = target: T1, K-Ras G12D (Homo sapiens, UniProt P01116, G12D); assay: HTRF resonance energy transfer assay, K-Ras G12D / SOS1 interaction; type: biochemical; conditions: HTRF assay of Example 5; read-out: IC50 against K-Ras G12D
T1 construct: made in house; host or cells: E. coli BL21 (DE3)
Outline: (§1)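 Compounds, tested in duplicate at 10 μM down to 0.01 μM, were read after about 10 min or more by HTRF as the 665/620 nm emission ratio (337 nm excitation) to derive IC50. This ratio reports FRET between an anti-GST-Eu donor on GST-K-Ras (wild-type or mutant) and an anti-6His-XL665 acceptor on His-hSOS1. Buffer: ~5 mM HEPES pH 7.4, 150 mM NaCl, 1 mM DTT, 0.05% BSA, 0.0025% Igepal.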

GP2D cells = assay: Ras cellular assay, growth of cells with K-Ras G12D mutation (CellTiter-Glo); type: cell-based; conditions: cell growth, Example 9, G12D mutation, read-out: IC50 against GP2D cells
A549 cells = assay: Ras cellular assay, growth of cells with K-Ras G12S mutation (CellTiter-Glo); type: cell-based; conditions: Homo sapiens, cell growth, Example 9, G12S mutation, read-out: IC50 against A549 cells
Outline: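 Growth inhibition IC50 values come from four-parameter fits of CellTiter-Glo luminescence, read about 6 days after compound addition. G12S-mutant A549 cells (e.g. 800/well, RPMI-1640 + 10% heat-inactivated FBS) were plated in tissue-culture-treated or ultra-low-attachment 384-well format. Dosing began the following day with serial dilutions, e.g. 10 points, 3-fold.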

K-Ras G12S = target: T2, K-Ras G12S (Homo sapiens, UniProt P01116, G12S); assay: HTRF resonance energy transfer assay, K-Ras G12S / SOS1 interaction; type: biochemical; conditions: HTRF assay of Example 5; read-out: IC50 against K-Ras G12S
T2 construct: made in house; host or cells: E. coli BL21 (DE3)
T2 sequence (P01116 1-188 isoform P01116-2 G12S): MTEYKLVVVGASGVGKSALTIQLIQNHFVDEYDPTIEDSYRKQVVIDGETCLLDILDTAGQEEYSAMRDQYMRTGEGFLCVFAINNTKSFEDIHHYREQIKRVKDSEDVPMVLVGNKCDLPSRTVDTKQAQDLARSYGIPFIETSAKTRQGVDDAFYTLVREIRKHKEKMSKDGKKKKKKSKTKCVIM
Outline: as §1

SW620 cells = assay: Ras cellular assay, growth of cells with K-Ras G12V mutation (CellTiter-Glo); type: cell-based; conditions: Homo sapiens, SW-620; cell growth, Example 9, G12V mutation; read-out: IC50 against SW620 cells
Outline: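 IC50 values came from a four-parameter fit of CellTiter-Glo viability, read roughly 6 days after dosing with e.g. a 10-point threefold dilution series. G12V-mutant SW620 cells (e.g. 800 per well) had been plated the previous day in RPMI-1640/10% heat-inactivated FBS, on tissue culture-treated or ultra-low attachment plates.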

K-Ras G12V = target: T3, K-Ras G12V (Homo sapiens, UniProt P01116, G12V); assay: HTRF resonance energy transfer assay, K-Ras G12V / SOS1 interaction; type: biochemical; conditions: HTRF assay of Example 5; read-out: IC50 against K-Ras G12V
T3 construct: made in house; host or cells: E. coli BL21 (DE3)
T3 sequence (P01116 1-188 isoform P01116-2 G12V): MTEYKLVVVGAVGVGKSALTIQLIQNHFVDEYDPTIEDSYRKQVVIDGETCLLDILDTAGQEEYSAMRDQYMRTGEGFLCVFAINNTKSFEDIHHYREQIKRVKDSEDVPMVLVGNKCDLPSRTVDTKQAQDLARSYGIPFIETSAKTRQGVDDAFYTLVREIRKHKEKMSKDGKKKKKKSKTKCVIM
Outline: as §1

K-Ras WT = target: T4, K-Ras WT (Homo sapiens, UniProt P01116); assay: HTRF resonance energy transfer assay, K-Ras WT / SOS1 interaction; type: biochemical; conditions: HTRF assay of Example 5; read-out: IC50 against K-Ras WT
T4 construct: made in house; host or cells: E. coli BL21 (DE3)
T4 sequence (P01116 1-188 isoform P01116-2): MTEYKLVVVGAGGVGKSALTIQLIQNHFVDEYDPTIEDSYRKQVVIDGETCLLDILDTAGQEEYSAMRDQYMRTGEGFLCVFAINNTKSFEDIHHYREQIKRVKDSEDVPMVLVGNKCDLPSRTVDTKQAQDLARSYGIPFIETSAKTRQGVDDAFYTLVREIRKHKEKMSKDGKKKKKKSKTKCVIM
Outline: as §1

T1 sequence (P01116 1-188 isoform P01116-2 G12D): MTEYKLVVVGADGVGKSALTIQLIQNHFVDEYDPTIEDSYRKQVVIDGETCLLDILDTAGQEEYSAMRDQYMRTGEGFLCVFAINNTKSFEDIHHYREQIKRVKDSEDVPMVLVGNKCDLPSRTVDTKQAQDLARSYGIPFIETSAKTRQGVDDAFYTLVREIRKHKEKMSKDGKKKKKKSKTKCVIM

IC50 (K-Ras G12D) [nM] | IC50 (A549 cells) [µM] | IC50 (K-Ras G12S) [nM] | IC50 (SW620 cells) [µM] | IC50 (K-Ras G12V) [nM] | IC50 (K-Ras WT) [nM] | Structure (SMILES) | IC50 (GP2D cells) [nM]
< 100 | < 5 | < 100 | < 5 | < 100 | < 100 | N#Cc1c(N)sc2c(F)ccc(-c3c(Cl)c4c5c(nc(OC[C@@]67CCCN6C[C@H](F)C7)nc5c3F)N(CC(F)F)C(CCO)CO4)c12 (single isomer, unassigned) [Compound 1049] | < 500
< 100 | < 5 | < 100 | < 5 | < 100 | < 100 | CO[C@H](C)C(=O)N1CCC(N2CCOc3c(Cl)c(-c4ccc(F)c5sc(N)c(C#N)c45)c(F)c4nc(OC[C@@]56CCCN5C[C@H](F)C6)nc2c34)C1 (stereo partly drawn) [Compound 1110, 2-amino-4-(8-chloro-10-fluoro-2-(((2R,7aS)-2-fluorotetrahydro-1H-pyrrolizin-7a(5H)-yl)methoxy)-4-(1-((R)-2-methoxypropanoyl)pyrrolidin-3-yl)-5,6-dihydro-4H-[1,4]oxazepino[5,6,7-de]quinazolin-9-yl)-7-fluorobenzo[b]thiophene-3-carbonitrile] | < 500
– | < 5 | – | – | – | – | CC1COc2c(Cl)c(-c3ccc(F)c4sc(N)c(C#N)c34)c(F)c3nc(OC[C@@]45CCCN4C[C@H](F)C5)nc(c23)N1CC(F)F (single isomer, unassigned) [Compound 1073] | < 500
– | < 5 | – | – | – | – | N#Cc1c(N)sc2c(F)ccc(-c3c(Cl)c4c5c(nc(OC[C@@]67CCCN6C[C@H](F)C7)nc5c3F)N(C3CCCC3O)CCO4)c12 (stereo partly drawn) [Compound 1017, 2-amino-4-(8-chloro-10-fluoro-2-(((2R,7aS)-2-fluorotetrahydro-1H-pyrrolizin-7a(5H)-yl)methoxy)-4-(2-hydroxycyclopentyl)-5,6-dihydro-4H-[1,4]oxazepino[5,6,7-de]quinazolin-9-yl)-7-fluorobenzo[b]thiophene-3-carbonitrile] | < 500
< 100 | < 5 | < 100 | < 5 | – | < 100 | N#Cc1c(N)sc2c(F)ccc(-c3c(Cl)c4c5c(nc(OC[C@@]67CCCN6C[C@H](F)C7)nc5c3F)N(CC(F)F)C(C(F)F)CO4)c12 (stereo partly drawn) [Compound 1105, 2-amino-4-(8-chloro-4-(2,2-difluoroethyl)-5-(difluoromethyl)-10-fluoro-2-(((2R,7aS)-2-fluorotetrahydro-1H-pyrrolizin-7a(5H)-yl)methoxy)-5,6-dihydro-4H-[1,4]oxazepino[5,6,7-de]quinazolin-9-yl)-7-fluorobenzo[b]thiophene-3-carbonitrile] | < 500
– | < 5 | – | < 5 | – | – | N#Cc1c(N)sc2c(F)ccc(-c3c(Cl)c4c5c(nc(OC[C@@]67CCCN6C[C@H](F)C7)nc5c3F)N(C3CC3)CCCO4)c12 [Compound 1204, 2-amino-4-(9-chloro-4-cyclopropyl-11-fluoro-2-(((2R,7aS)-2-fluorotetrahydro-1H-pyrrolizin-7a(5H)-yl)methoxy)-4,5,6,7-tetrahydro-[1,5]oxazocino[4,3,2-de]quinazolin-10-yl)-7-fluorobenzo[b]thiophene-3-carbonitrile] | < 500
– | < 5 | – | < 5 | – | – | N#Cc1c(N)sc2c(F)ccc(-c3c(Cl)c4c5c(nc(OC[C@@]67CCCN6C[C@H](F)C7)nc5c3F)N(CC(F)F)C(CO)CO4)c12 (stereo partly drawn) [Compound 1037, 2-amino-4-(8-chloro-4-(2,2-difluoroethyl)-10-fluoro-2-(((2R,7aS)-2-fluorotetrahydro-1H-pyrrolizin-7a(5H)-yl)methoxy)-5-(hydroxymethyl)-5,6-dihydro-4H-[1,4]oxazepino[5,6,7-de]quinazolin-9-yl)-7-fluorobenzo[b]thiophene-3-carbonitrile] | < 500
< 100 | – | < 100 | < 5 | < 100 | < 100 | C[C@@H]1CCOc2c(Cl)c(-c3ccc(F)c4sc(N)c(C#N)c34)c(F)c3nc(OC[C@@]45CCCN4C[C@H](F)C5)nc(c23)N1C [Compound 1222, 2-amino-4-((R)-9-chloro-11-fluoro-2-(((2R,7aS)-2-fluorotetrahydro-1H-pyrrolizin-7a(5H)-yl)methoxy)-4,5-dimethyl-4,5,6,7-tetrahydro-[1,5]oxazocino[4,3,2-de]quinazolin-10-yl)-7-fluorobenzo[b]thiophene-3-carbonitrile] | < 500

The next lines start with the compound.

Structure (SMILES) | IC50 (K-Ras G12D) [nM] | IC50 (A549 cells) [µM] | IC50 (K-Ras G12S) [nM] | IC50 (SW620 cells) [µM] | IC50 (K-Ras G12V) [nM] | IC50 (K-Ras WT) [nM] | IC50 (GP2D cells) [nM]
N#Cc1c(N)sc2c(F)ccc(-c3c(Cl)c4c5c(nc(OC[C@@]67CCCN6C[C@H](F)C7)nc5c3F)N(CCC(F)F)CCO4)c12 [Compound 807, 2-amino-4-(8-chloro-4-(3,3-difluoropropyl)-10-fluoro-2-(((2R,7aS)-2-fluorotetrahydro-1H-pyrrolizin-7a(5H)-yl)methoxy)-5,6-dihydro-4H-[1,4]oxazepino[5,6,7-de]quinazolin-9-yl)-7-fluorobenzo[b]thiophene-3-carbonitrile] | < 100 | < 5 | < 100 | < 5 | < 100 | < 100 | < 500
N#Cc1c(N)sc2c(F)ccc(-c3c(Cl)c4c5c(nc(OC[C@@]67CCCN6C[C@H](F)C7)nc5c3F)N(CC(F)F)CC(C(F)(F)F)O4)c12 (stereo partly drawn) [Compound 1008, 2-amino-4-(8-chloro-4-(2,2-difluoroethyl)-10-fluoro-2-(((2R,7aS)-2-fluorotetrahydro-1H-pyrrolizin-7a(5H)-yl)methoxy)-6-(trifluoromethyl)-5,6-dihydro-4H-[1,4]oxazepino[5,6,7-de]quinazolin-9-yl)-7-fluorobenzo[b]thiophene-3-carbonitrile] | < 100 | < 5 | – | < 5 | < 100 | < 100 | < 500
N#Cc1c(N)sc2c(F)ccc(-c3c(Cl)c4c5c(nc(OC[C@@]67CCCN6C[C@H](F)C7)nc5c3F)N(CC3CC3C#N)CCO4)c12 (stereo partly drawn) [Compound 962, 2-amino-4-(8-chloro-4-((2-cyanocyclopropyl)methyl)-10-fluoro-2-(((2R,7aS)-2-fluorotetrahydro-1H-pyrrolizin-7a(5H)-yl)methoxy)-5,6-dihydro-4H-[1,4]oxazepino[5,6,7-de]quinazolin-9-yl)-7-fluorobenzo[b]thiophene-3-carbonitrile] | – | < 5 | – | < 5 | – | – | < 500
CC1Oc2c(Cl)c(-c3ccc(F)c4sc(N)c(C#N)c34)c(F)c3nc(OC[C@@]45CCCN4C[C@H](F)C5)nc(c23)N(CC(F)F)C1CC#N (stereo partly drawn) [Compound 1015, 2-amino-4-(8-chloro-5-(cyanomethyl)-4-(2,2-difluoroethyl)-10-fluoro-2-(((2R,7aS)-2-fluorotetrahydro-1H-pyrrolizin-7a(5H)-yl)methoxy)-6-methyl-5,6-dihydro-4H-[1,4]oxazepino[5,6,7-de]quinazolin-9-yl)-7-fluorobenzo[b]thiophene-3-carbonitrile] | – | < 5 | – | < 5 | – | – | < 500
CCN1CCOc2c(Cl)c(-c3ccc(F)c4sc(N)c(C#N)c34)c(F)c3nc(OC[C@@]45CCCN4C[C@H](F)C5)nc1c23 [Compound 625, 2-amino-4-(8-chloro-4-ethyl-10-fluoro-2-(((2R,7aS)-2-fluorotetrahydro-1H-pyrrolizin-7a(5H)-yl)methoxy)-5,6-dihydro-4H-[1,4]oxazepino[5,6,7-de]quinazolin-9-yl)-7-fluorobenzo[b]thiophene-3-carbonitrile] | < 100 | < 5 | < 100 | – | < 100 | < 100 | < 500
CN(C)C(=O)C1CC(N2CCOc3c(Cl)c(-c4ccc(F)c5sc(N)c(C#N)c45)c(F)c4nc(OC[C@@]56CCCN5C[C@H](F)C6)nc2c34)C1 (single isomer, unassigned) [Compound 640] | – | < 5 | – | – | – | – | < 500
CC[C@H]1COc2c(Cl)c(-c3ccc(F)c4sc(N)c(C#N)c34)c(F)c3nc(OC[C@@]45CCCN4C[C@H](F)C5)nc(c23)N1CC(F)F [Compound 877, 2-amino-4-((5S)-8-chloro-4-(2,2-difluoroethyl)-5-ethyl-10-fluoro-2-(((2R,7aS)-2-fluorotetrahydro-1H-pyrrolizin-7a(5H)-yl)methoxy)-5,6-dihydro-4H-[1,4]oxazepino[5,6,7-de]quinazolin-9-yl)-7-fluorobenzo[b]thiophene-3-carbonitrile] | – | < 5 | – | – | – | – | < 500
